Source: PubChem BioAssay AID1918955 (Molecular Pharmacology Branch, DTP, NCI, 2023)
pIC50: −log10 of the molar value.

System: NCI/ADR-RES complex spheroid viability
Experiment: Anticancer human tumor NCI/ADR-RES cell line growth inhibition;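 also: spheroids exposed to compounds for 7 days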;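 as to viability, T/C: 100% = DMSO vehicle treated spheroids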
Conditions: for pIC50: curve of first compound; for viability, T/C: stronger effect = lower value
Summary of the method: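 Complex spheroids of tumor cells with HUVEC and human MSCs, exposed to iadademstat combined with other agents. Each agent tested in half-log steps from near clinical Cmax (else 10 microM top), DMSO ≤0.25%.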

CC(C)CC(NC(=O)C(Cc1ccccc1)NC(=O)c1cnccn1)B(O)O (stereo not given) + NC1CCC(NC2CC2c2ccccc2)CC1
pIC50 (second compound 0.1 µM): 7.99
pIC50 (second compound 0.316 µM): 7.92
pIC50 (second compound 1 µM): 8.03
pIC50 (second compound 3.16 µM): 8.03
pIC50 (second compound 10 µM): 8.18
viability, T/C (second compound 0.1 µM, first compound 0.000316 µM): 103%
viability, T/C (second compound 0.1 µM, first compound 0.001 µM): 110%
viability, T/C (second compound 0.1 µM, first compound 0.00316 µM): 92.4%
viability, T/C (second compound 0.1 µM, first compound 0.01 µM): 51.5%
viability, T/C (second compound 0.1 µM, first compound 0.0316 µM): 10.4%
viability, T/C (second compound 0.1 µM, first compound 0.1 µM): 4%
viability, T/C (second compound 0.316 µM, first compound 0.000316 µM): 111%
viability, T/C (second compound 0.316 µM, first compound 0.001 µM): 101%
viability, T/C (second compound 0.316 µM, first compound 0.00316 µM): 100%
viability, T/C (second compound 0.316 µM, first compound 0.01 µM): 58.1%
viability, T/C (second compound 0.316 µM, first compound 0.0316 µM): 9.17%
viability, T/C (second compound 0.316 µM, first compound 0.1 µM): 0.68%
viability, T/C (second compound 1 µM, first compound 0.000316 µM): 104%
viability, T/C (second compound 1 µM, first compound 0.001 µM): 98.4%
viability, T/C (second compound 1 µM, first compound 0.00316 µM): 98.7%
viability, T/C (second compound 1 µM, first compound 0.01 µM): 46.7%
viability, T/C (second compound 1 µM, first compound 0.0316 µM): 8.19%
viability, T/C (second compound 1 µM, first compound 0.1 µM): 0.58%
viability, T/C (second compound 3.16 µM, first compound 0.000316 µM): 95.9%
viability, T/C (second compound 3.16 µM, first compound 0.001 µM): 97.1%
viability, T/C (second compound 3.16 µM, first compound 0.00316 µM): 86.1%
viability, T/C (second compound 3.16 µM, first compound 0.01 µM): 48.3%
viability, T/C (second compound 3.16 µM, first compound 0.0316 µM): 7.8%
viability, T/C (second compound 3.16 µM, first compound 0.1 µM): 0.14%
viability, T/C (second compound 10 µM, first compound 0.000316 µM): 94.1%
viability, T/C (second compound 10 µM, first compound 0.001 µM): 85.4%
viability, T/C (second compound 10 µM, first compound 0.00316 µM): 82.6%
viability, T/C (second compound 10 µM, first compound 0.01 µM): 31.4%
viability, T/C (second compound 10 µM, first compound 0.0316 µM): 8.41%
viability, T/C (second compound 10 µM, first compound 0.1 µM): 0.25%

CCc1c2c(nc3ccc(O)cc13)-c1cc3c(c(=O)n1C2)COC(=O)[C@]3(O)CC + NC1CCC(NC2CC2c2ccccc2)CC1
pIC50 (second compound 0.1 µM): > 9.02
pIC50 (second compound 0.316 µM): > 9.02
pIC50 (second compound 1 µM): > 9.02
pIC50 (second compound 3.16 µM): > 9.02
pIC50 (second compound 10 µM): > 9.02
viability, T/C (second compound 0.1 µM, first compound 0.000949 µM): 5.27%
viability, T/C (second compound 0.1 µM, first compound 0.003 µM): 2.59%
viability, T/C (second compound 0.1 µM, first compound 0.00949 µM): 0.6%
viability, T/C (second compound 0.1 µM, first compound 0.03 µM): 1.16%
viability, T/C (second compound 0.1 µM, first compound 0.0949 µM): 1.11%
viability, T/C (second compound 0.1 µM, first compound 0.3 µM): 3.88%
viability, T/C (second compound 0.316 µM, first compound 0.000949 µM): 2.94%
viability, T/C (second compound 0.316 µM, first compound 0.003 µM): 1.44%
viability, T/C (second compound 0.316 µM, first compound 0.00949 µM): 1.36%
viability, T/C (second compound 0.316 µM, first compound 0.03 µM): 2.53%
viability, T/C (second compound 0.316 µM, first compound 0.0949 µM): 0.44%
viability, T/C (second compound 0.316 µM, first compound 0.3 µM): 0.37%
viability, T/C (second compound 1 µM, first compound 0.000949 µM): 6.45%
viability, T/C (second compound 1 µM, first compound 0.003 µM): 1.09%
viability, T/C (second compound 1 µM, first compound 0.00949 µM): 1.09%
viability, T/C (second compound 1 µM, first compound 0.03 µM): 1.03%
viability, T/C (second compound 1 µM, first compound 0.0949 µM): 0.47%
viability, T/C (second compound 1 µM, first compound 0.3 µM): 0.58%
viability, T/C (second compound 3.16 µM, first compound 0.000949 µM): 2.6%
viability, T/C (second compound 3.16 µM, first compound 0.003 µM): 1.07%
viability, T/C (second compound 3.16 µM, first compound 0.00949 µM): 0.88%
viability, T/C (second compound 3.16 µM, first compound 0.03 µM): 0.53%
viability, T/C (second compound 3.16 µM, first compound 0.0949 µM): 1.24%
viability, T/C (second compound 3.16 µM, first compound 0.3 µM): 2.59%
viability, T/C (second compound 10 µM, first compound 0.000949 µM): 4.02%
viability, T/C (second compound 10 µM, first compound 0.003 µM): 1.26%
viability, T/C (second compound 10 µM, first compound 0.00949 µM): 0.71%
viability, T/C (second compound 10 µM, first compound 0.03 µM): 0.53%
viability, T/C (second compound 10 µM, first compound 0.0949 µM): 0.22%
viability, T/C (second compound 10 µM, first compound 0.3 µM): 4.32%
